Data reported in patent US12378224B2 (Dong-A Socio Holdings Co., Ltd., priority 2016, dated 2025).

target: human MER (528-end) (Homo sapiens (Human), UniProt Q12866); test: HTRF Kinase Activity Biochemical Assay (KinEASE-TK); settings: 10 uM ATP
Method: For the SAR (structure-activity relationship) and compound screening, HTRF (Homogeneous Time Resolved Fluorescence) kinase activity assay was employed for all MER, AXL and TYRO3 kinases using Cisbio HTRF® KinEASE™-TK kit (Cisbio, USA). The kit includes biotin-labeled TK substrate, streptavidin-XL665, Eu3+-cryptate-labeled TK antibody and HTRF® Detection buffer. There are two main steps in the kinase assay: kinase reaction and detection of phosphorylated substrate. The reaction was carried out in white low volume 384-well plate (Corning, USA) with 25 nL compound in dimethyl sulfoxide in each well. […] Then the reaction was stopped after 1 hour incubation at room temperature by adding 5 uL of HTRF® Detection buffer which also contains 0.375 nM Eu3+-cryptate-labeled TK antibody and 0.062 uM streptavidin-XL665(SA-XL665) to allow for detection of the phosphorylated peptide product. After 1 h incubation at room temperature, the fluorescence intensity was measured with Envision™ plate reader (PerkinElmer, USA). Upon excitation at 340 nm by UV, the energy from Eu3+ donor of the antibody is transferred to the FRET acceptor XL665, and […] emits light at 665 nm. The level of kinase activity was quantified by the HTRF ratio that calculated from the intensity of emission at 665 nm and emission at 620 nm (fluorescence intensity @ 665 nm/fluorescence intensity @ 620 nm×10,000). The recombinant protein of human MER (528-end) was purchased from Carnabio, Japan. The recombinant human AXL (473-end) and TYRO3 (455-end) were purchased from SignalChem, Canada.

Sequence of human MER (528-end) (Q12866 528-999 limits assumed): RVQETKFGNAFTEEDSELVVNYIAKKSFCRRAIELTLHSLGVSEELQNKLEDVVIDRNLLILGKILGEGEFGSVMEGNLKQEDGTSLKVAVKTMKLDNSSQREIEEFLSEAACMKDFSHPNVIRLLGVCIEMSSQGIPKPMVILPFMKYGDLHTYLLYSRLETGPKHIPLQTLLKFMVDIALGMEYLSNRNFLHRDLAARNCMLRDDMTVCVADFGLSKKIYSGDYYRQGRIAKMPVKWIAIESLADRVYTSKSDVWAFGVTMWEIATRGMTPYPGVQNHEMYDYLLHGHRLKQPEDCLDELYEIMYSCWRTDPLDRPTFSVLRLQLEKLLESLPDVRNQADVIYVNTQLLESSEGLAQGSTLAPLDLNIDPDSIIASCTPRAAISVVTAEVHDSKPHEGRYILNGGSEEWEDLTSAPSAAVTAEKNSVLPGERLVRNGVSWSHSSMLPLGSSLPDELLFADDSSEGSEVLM

Compound	IC50 [nM]
CN(C)c1ccc(NC(=S)N2CC[C@@H](NC(=O)c3cc(-c4cnn(C)c4)cnc3N)C2)cc1 [Example 48, (R)-2-amino-N-(1-((4-(dimethylamino)phenyl)carbamothioyl)pyrrolidin-3-yl)-5-(1-methyl-1H-pyrazol-4-yl)nicotinamide]	> 1000
Nc1ncc(-c2ccc(F)c(F)c2)cc1C(=O)N[C@@H]1CCN(C(=O)Oc2cccc(-c3ccccc3)c2)C1 [Example 84, [1,1′-biphenyl]-3-yl (R)-3-(2-amino-5-(3,4-difluorophenyl)nicotinamido)pyrrolidine-1-carboxylate]	> 1000
Cc1nc(C)c(CN2CC[C@@H](NC(=O)c3cc(-c4cnn(C5CCNCC5)c4)cnc3N)C2)s1 [Example 163, (R)-2-amino-N-(1-((2,4-dimethylthiazol-5-yl)methyl)pyrrolidin-3-yl)-5-(1-(piperidin-4-yl)-1H-pyrazol-4-yl)nicotinamide]	> 1000
Cn1cc(-c2cnc(N)c(C(=O)N[C@@H]3CCN(C(=O)Nc4cccc(-c5ccccc5)c4)C3)c2)cn1 [Example 23, (R)—N-(1-([1,1′-biphenyl]-3-ylcarbamoyl)pyrrolidin-3-yl)-2-amino-5-(1-methyl-1H-pyrazol-4-yl)nicotinamide]	100 to 1000
Cn1cc(-c2cnc(N)c(C(=O)N[C@@H]3CCN(Cc4ccccc4-c4ccccc4)C3)c2)cn1 [Example 225, (R)—N-(1-([1,1′-biphenyl]-2-ylmethyl)pyrrolidin-3-yl)-2-amino-5-(1-methyl-1H-pyrazol-4-yl)nicotinamide]	100 to 1000
Cc1c(C(=O)N2CC[C@@H](NC(=O)c3cc(-c4cnn(C)c4)cnc3N)C2)oc2ccccc12 [Example 402, (R)-2-amino-5-(1-methyl-1H-pyrazol-4-yl)-N-(1-(3-methylbenzofuran-2-carbonyl)pyrrolidin-3-yl)nicotinamide]	> 1000
Cn1cc(-c2cnc(N)c(C(=O)N[C@@H]3CCN(C(=O)Oc4cccc(-c5ccc(CN6CCCNCC6)cc5)c4)C3)c2)cn1 [Example 323, 4′-((1,4-diazepan-1-yl)methyl)-[1,1′-biphenyl]-3-yl (R)-3-(2-amino-5-(1-methyl-1H-pyrazol-4-yl)nicotinamido)pyrrolidine-1-carboxylate]	100 to 1000
Cn1cc(-c2cnc(N)c(C(=O)N[C@@H]3CCN(C(=O)c4ccc(-c5ccccc5CO)cc4)C3)c2)cn1 [Example 349, (R)-2-amino-N-(1-(2′-(hydroxymethyl)-[1,1′-biphenyl]-4-carbonyl)pyrrolidin-3-yl)-5-(1-methyl-1H-pyrazol-4-yl)nicotinamide]	100 to 1000
Cc1ccc(C)c(CN2CC[C@@H](NC(=O)c3cc(-c4cnn(C5CCNCC5)c4)cnc3N)C2)c1 [Example 166, (R)-2-amino-N-(1-(2,5-dimethylbenzyl)pyrrolidin-3-yl)-5-(1-(piperidin-4-yl)-1H-pyrazol-4-yl)nicotinamide]	> 1000
Cc1c(N)cccc1-c1ccc(C(=O)N2CC[C@@H](NC(=O)c3cc(-c4cnn(C)c4)cnc3N)C2)cc1 [Example 376, (R)-2-amino-N-(1-(3′-amino-2′-methyl-[1,1′-biphenyl]-4-carbonyl)pyrrolidin-3-yl)-5-(1-methyl-1H-pyrazol-4-yl)nicotinamide]	100 to 1000
Cn1cc(-c2cnc(N)c(C(=O)N[C@@H]3CCN(C(=O)c4ccc(Br)cc4)C3)c2)cn1 [Example 342, (R)-2-amino-N-(1-(4-bromobenzoyl)pyrrolidin-3-yl)-5-(1-methyl-1H-pyrazol-4-yl)nicotinamide]	> 1000
Cn1cc(-c2cnc(N)c(C(=O)N[C@@H]3CCN(C(=O)OC4CCC(c5ccccc5)CC4)C3)c2)cn1 (stereo partly drawn) [Example 125, 4-phenylcyclohexyl (R)-3-(2-amino-5-(1-methyl-1H-pyrazol-4-yl)nicotinamido)pyrrolidine-1-carboxylate]	> 1000
Cn1cc(-c2cnc(N)c(C(=O)N[C@@H]3CCN(C(=O)c4ccc(-c5ccccc5-c5ccccc5)cc4)C3)c2)cn1 [Example 352, (R)—N-(1-([1,1′:2′,1″-terphenyl]-4-carbonyl)pyrrolidin-3-yl)-2-amino-5-(1-methyl-1H-pyrazol-4-yl)nicotinamide]	> 1000
Cn1cc(-c2cnc(N)c(C(=O)N[C@@H]3CCN(C(=O)/C=C/c4ccc5c(c4)OCO5)C3)c2)cn1 [Example 425, (R,E)-2-amino-N-(1-(3-(benzo[d][1,3]dioxol-5-yl)acryloyl)pyrrolidin-3-yl)-5-(1-methyl-1H-pyrazol-4-yl)nicotinamide]	> 1000
CN1CCN(Cc2cccc(-c3cccc(CN4CC[C@@H](NC(=O)c5cc(-c6cnn(C)c6)cnc5N)C4)c3)c2)CC1 [Example 245, (R)-2-amino-5-(1-methyl-1H-pyrazol-4-yl)-N-(1-((3′-((4-methylpiperazin-1-yl)methyl)-[1,1′-biphenyl]-3-yl)methyl)pyrrolidin-3-yl)nicotinamide]	> 1000

The next lines start with the values.

IC50 [nM]	Compound
> 1000	CN(C(=O)N1CC[C@@H](NC(=O)c2cc(-c3cnn(C)c3)cnc2N)C1)c1ccccc1 [Example 625, (R)-2-amino-N-(1-(methyl(phenyl)carbamoyl)pyrrolidin-3-yl)-5-(1-methyl-1H-pyrazol-4-yl)nicotinamide]
10 to 100	COCCn1cc(-c2cnc(N)c(C(=O)N[C@@H]3CCN(C(=O)c4ccc(-c5ccccc5Cl)cc4)C3)c2)cn1 [Example 573, (R)-2-amino-N-(1-(2′-chloro-[1,1′-biphenyl]-4-carbonyl)pyrrolidin-3-yl)-5-(1-(2-methoxyethyl)-1H-pyrazol-4-yl)nicotinamide]
> 1000	Cn1cc(-c2cnc(N)c(C(=O)N[C@@H]3CCN(C(=O)c4cccc(-c5cccc(C(=O)N6CCSCC6)c5)c4)C3)c2)cn1 [Example 463, (R)-2-amino-5-(1-methyl-1H-pyrazol-4-yl)-N-(1-(3′-(thiomorpholine-4-carbonyl)-[1,1′-biphenyl]-3-carbonyl)pyrrolidin-3-yl)nicotinamide]
100 to 1000	Cn1cc(-c2cnc(N)c(C(=O)N[C@@H]3CCN(C(=O)c4ccc(C#CCCCO)cc4)C3)c2)cn1 [Example 554, (R)-2-amino-N-(1-(4-(5-hydroxypent-1-yn-1-yl)benzoyl)pyrrolidin-3-yl)-5-(1-methyl-1H -pyrazol-4-yl)nicotinamide]
100 to 1000	Nc1ncc(-c2cncc(C(=O)O)c2)cc1C(=O)N[C@@H]1CCN(C(=O)c2ccc(-c3ccc(F)cc3Cl)cc2)C1 [Example 587, (R)-6′-amino-5′-((1-(2′-chloro-4′-fluoro-[1,1′-biphenyl]-4-carbonyl)pyrrolidin-3-yl)carbamoyl)-[3,3′-bipyridine]-5-carboxylic acid]
> 1000	Cn1cc(-c2cnc(N)c(C(=O)NC[C@@H]3CCN(C(=O)c4ccc(-c5ccccc5)cc4)C3)c2)cn1 [Example 738, (S)—N-((1-([1,1′-biphenyl]-4-carbonyl)pyrrolidin-3-yl)methyl)-2-amino-5-(1-methyl-1H-pyrazol-4-yl)nicotinamide]
> 1000	Cn1cc(-c2cnc(N)c(C(=O)N[C@@H]3CCN(C(=O)c4ccc(-c5ccc(N6CCOCC6)cc5)cc4)C3)c2)cn1 [Example 492, (R)-2-amino-5-(1-methyl-1H-pyrazol-4-yl)-N-(1-(4′-morpholino-[1,1′-biphenyl]-4-carbonyl)pyrrolidin-3-yl)nicotinamide]
> 1000	Cn1cc(-c2cnc(N)c(C(=O)N[C@@H]3CCN(C(=O)c4ccc(-c5ccc(C(=O)N6CCOCC6)cc5)cc4)C3)c2)cn1 [Example 493, (R)-2-amino-5-(1-methyl-1H-pyrazol-4-yl)-N-(1-(4′-(morpholine-4-carbonyl)-[1,1′-biphenyl]-4-carbonyl)pyrrolidin-3-yl)nicotinamide]
> 1000	Cn1cc(-c2cnc(N)c(C(=O)N[C@@H]3CCN(C(=O)c4ccc(/C=C/C5CCNCC5)cc4)C3)c2)cn1 [Example 827, (R,E)-2-amino-5-(1-methyl-1H-pyrazol-4-yl)-N-(1-(4-(2-(piperidin-4-yl)vinyl)benzoyl)pyrrolidin-3-yl)nicotinamide]
100 to 1000	Cn1cc(-c2cnc(N)c(C(=O)N[C@@H]3CCN(C(=O)/C=C/c4ccc(-c5ccccc5)cc4)C3)c2)cn1 [Example 730, (R,E)-N-(1-(3-([1,1′-biphenyl]-4-yl)acryloyl)pyrrolidin-3-yl)-2-amino-5-(1-methyl-1H-pyrazol-4-yl)nicotinamide]
> 1000	(R)-2-amino-N-(1-(3,5-dihydroxy-2-naphthoyl)pyrrolidin-3-yl)-5-(1-methyl-1H-pyrazol-4-yl)nicotinamide [Example 668]
> 1000	Cn1cc(-c2cnc(N)c(C(=O)N[C@H]3CN(C(=O)c4ccc(-c5ccc(F)cc5Cl)cc4)C[C@H]3F)c2)cn1 [Example 682, 2-amino-N-((3S,4R)-1-(2′-chloro-4′-fluoro-[1,1′-biphenyl]-4-carbonyl)-4-fluoropyrrolidin-3-yl)-5-(1-methyl-1H-pyrazol-4-yl)nicotinamide]
10 to 100	CN1CCC(n2cc(-c3cnc(N)c(C(=O)N[C@@H]4CCN(C(=O)c5ccc(-c6ccccc6)cc5)C4)c3)cn2)CC1 [Example 563, (R)—N-(1-([1,1′-biphenyl]-4-carbonyl)pyrrolidin-3-yl)-2-amino-5-(1-(1-methylpiperidin-4-yl)-1H-pyrazol-4-yl)nicotinamide]
